From US9790198B2, “Substituted benzothiophenyl derivatives as GPR40 agonists for the treatment of type II diabetes” (Janssen Pharmaceutica NV, priority 2014, dated 2017) come the findings set out here.

The target of the test is human GPR40 (Homo sapiens (Human), UniProt O14842). The experiment in a line: GPR40 Calcium Flux Assay. Type of test: cell-based. The following applies: transfected HEK293 cells stably expressing human GPR40, mean data, read-out: hGPR40 Ca^2+ Assay EC50. On the procedure: Compounds were tested in a calcium flux assay using transfected HEK293 cells stably expressing either human GPR40 or rat GPR40. Human GPR40 expressing cells were cultured in DMEM-High Glucose media supplemented with 10% fetal bovine serum, 1×L-Glutamine, 1× Penicillin/Streptomycin and 500 μg/mL G418. Rat GPR40 expressing cells were cultured in DMEM-High Glucose media supplemented with 10% fetal bovine serum and 1 μg/mL puromycin. Cells were plated into poly-D-lysine coated 384-well plates and cultured overnight in a 37° C. humidified tissue culture incubator under 5% CO2/90% O2 atmosphere. On the day of the experiment, the culture media was replaced with assay buffer (HBSS, 20 mM HEPES, 0.1% BSA) and the cells incubated at 37° C. for 1 h. Calcium-sensitive fluorescent dye (Fluo 8 No-Wash Calcium Dye, ABD Bioquest) was then added and the cells incubated for another 30 min at 37° C. followed by 15 min at room temperature while protected from the light. The cell plate and a plate of diluted compounds of Formula (I) were loaded into a fluorescent plate reader that added compounds onto the cells while measuring the fluorescence intensity of each well. The plate reader recorded fluorescence intensity at 1 second intervals for 8 min and provided the data for analysis in an Excel format. EC50 values were calculated using Prism (GraphPad) software.
human GPR40, sequence (O14842 whole entry): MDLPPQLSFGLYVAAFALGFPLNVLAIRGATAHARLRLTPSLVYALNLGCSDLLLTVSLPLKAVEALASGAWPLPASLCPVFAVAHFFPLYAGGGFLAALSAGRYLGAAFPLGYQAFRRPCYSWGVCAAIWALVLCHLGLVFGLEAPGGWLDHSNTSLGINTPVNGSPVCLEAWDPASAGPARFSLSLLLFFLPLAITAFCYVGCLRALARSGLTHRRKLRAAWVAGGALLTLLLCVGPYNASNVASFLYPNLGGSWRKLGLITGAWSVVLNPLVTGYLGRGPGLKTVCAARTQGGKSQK

As usually defined, the EC50 is the concentration needed to bring the measured effect to its halfway point. `Cc1ccccc1-c1csc2ccc(COc3ccc([C@]4(CC(=O)O)C[C@@H](O)C4)cc3)cc12` [Cpd 31, 2-((1r,3r)-3-Hydroxy-1-(4-((3-(2-methylphenyl)benzo[b]thiophen-5-yl)methoxy)phenyl)cyclobutyl)acetic acid]: the EC50 came to 14 nM.
